Source: a melting point compilation (Tetko et al.; mined from patent text by program, amines drawn as free bases though some values may be those of a salt)

melting point [°C]	Structure (SMILES)
154 to 156	O=C(O)Cc1ccc(CC2(CNS(=O)(=O)c3ccccc3)CCCC2)cc1
200 to 202	Nc1c(-c2nc(-c3ccco3)n[nH]2)nnn1Cc1ccc(F)cc1
154 to 156	CC(C)NS(=O)(=O)c1ccc(-c2ccc3nnn(Cc4ccc5ncccc5c4)c3n2)cc1
> 250	N#Cc1cnc2cc(O)ccc2c1Nc1ccc2cn[nH]c2c1
152 to 156	COc1ccc(Cn2c(C)cc3cnnc(OCc4ccccc4)c32)cc1
216 to 218	O=[N+]([O-])c1ccc(Br)c2nsnc12
62.5 to 64	C=CCC1(C(=O)NCCCC)c2ccccc2-c2ccccc21
158 to 161	CN(CCc1cccc(O)c1)c1cnc(-c2ccccc2)c(-c2ccccc2)n1
> 300	Clc1cccc(Nc2ncnc3[nH]c(-c4ccccn4)cc23)c1
115 to 116	FC(F)(F)c1ccc(/C=C/c2nc(COc3cccc(CCCn4ccnn4)c3)co2)cc1
38	CCc1ccc(S(=O)(=O)NC(C)(C)C)s1
178 to 180	CCCCC1c2ccccc2-c2cc(Br)ccc2N1S(=O)(=O)c1ccc(O)cc1 (configuration not stated)
144 to 145	CC(C)c1nn(-c2ccc(C(F)(F)F)cn2)cc1CCCOc1c(C#N)cccc1CC(=O)O
166 to 168	O=C(CBr)Nc1cc(F)ccc1C(=O)O
131 to 132	COc1c2c(cc3ccc(=O)oc13)CC(OC)O2 (configuration not stated)
224 to 226	N#Cc1cc(C(F)(F)F)[nH]c1-c1ccc(Br)o1
87	COC(=O)c1cccc(N)n1
105 to 107	CCOc1cccc(CNC(=O)[C@H]2N(C(=O)[C@@H](O)[C@H](Cc3ccccc3)NC(=O)c3cccc(O)c3C)CSC2(C)C)c1
41 to 42	CCOC(=O)c1cc2c(s1)CC(C)(C)C2=O
101 to 103	COc1ccc(CNc2nnc(-c3ccc(C(F)(F)F)cc3)cc2C(F)(F)F)cc1
182 to 184	COc1ccc(NS(=O)(=O)c2cc3cc(Br)ccc3oc2=O)cc1
112 to 114	Cc1ccc(S(=O)(=O)n2cc(I)nc2C)cc1
108 to 109	C=CC(=O)OCCOC(=O)Cc1cc(O)n2ncnc2n1
266 to 268	CCOC(=O)c1nnc2c3ccc(Cl)cc3c(-c3ccccc3)nn12

melting point [°C]	Structure (SMILES)
164	O=C(O)c1cccc([N+](=O)[O-])c1NCc1ccccc1Cl
55 to 56	CCCNC(=O)c1cccnc1Oc1cccnc1
99 to 100	CNC(=S)Nc1ccccc1CC(=O)OC
148 to 149	Cc1c(OCc2ccccc2)ccc2c(=O)cc(N3CCN(c4ccccn4)CC3)oc12
260	CC(C)N1CCC(C2=C(C#N)C(c3cccc4nonc34)c3c[nH]nc3N2)CC1 (configuration not stated)
128 to 130	CC(C)(NCCCn1cnc(CO)c1)c1ccc(-c2ccccc2)cc1
136 to 138	COC(=O)C(=O)c1ccc(OCCOc2ccc3ccccc3c2)c(F)c1
142 to 145	COCCOc1cc2ncc(C#N)c(Cl)c2cc1OCc1ccccc1
139 to 140	CC(C)CNCC(=O)Nc1cccc2c1C(=O)c1c(NC(=O)CNCC(C)C)cccc1C2=O
67 to 68	Oc1ccc(CCCC2OCCO2)cc1
166 to 168	CCC(=O)NC(C)(C(=O)NS(=O)(=O)c1ccc(C)cc1)C(C)C (configuration not stated)
76 to 78	OCC1(Cc2ccccc2)CCC2(CC1)OCCO2
112 to 114	Cn1ncc2c(c1=O)C(Cc1ccccc1)NCCS2 (configuration not stated)
94 to 96	COc1cc(C(=O)C#Cc2ccccc2)cc(OC)c1OC
155 to 158	CCOC(=O)c1c(N)sc(N)c1C(=O)OCC
113 to 114	O=C1CCN(Cc2ccc3c(c2)OCO3)CC1C(c1ccccc1)c1ccccc1 (configuration not stated)
286 to 288	N#Cc1cnc2cc(-c3csc(C=O)c3)ccc2c1Nc1ccc(Cl)cc1Cl
155 to 157	CS(=O)(=O)c1ccc(N)c(C#N)c1
185 to 187	CNc1ncnc(N2CCc3ccccc32)n1
115 to 116	COc1cc2c(cc1OC)CCN(CCCN(C)C1CCc3cc(OC)c(OC)cc3C1)C=C2 (configuration not stated)
36 to 38	CCOC(=O)C(CCCCCCl)=NO
248	O=[N+]([O-])c1ccc2c(c1)SC1=NCCCN12
134 to 135	C=CCc1nc(CC)n2nc(-c3cc(I)cnc3OCCCC)[nH]c(=O)c12
133 to 135	CC(=O)OCc1nc(C(C)C)c(Sc2cc(Cl)cc(Cl)c2)n1Cc1ccncc1

melting point [°C]	Structure (SMILES)
143 to 146	O=[N+]([O-])C=C1SCCCN1Cc1cccnc1
151 to 154	COc1ccc(CCCc2cnc(N)nc2N)cc1
134 to 136	CCC1(c2ccncc2)CCC(=O)NC1=O (configuration not stated)
363 to 365	NC(=O)c1nc(-c2cccc(O)c2)nc2c1[nH]c(=O)n2-c1ccccc1C(F)(F)F
214 to 215	Fc1ccc(-n2nc(-c3cccc(C(F)(F)F)c3)c3ncccc3c2=S)cc1
180 to 188	CC(C)(C)OC(=O)Nc1cc2nc(-c3ccccc3)nn2cc1F
289 to 291	CCNC(=O)[C@H](C)NC(=O)[C@H](C)NC(=O)CC
51 to 52	CC(C)c1cc(O)cc(C(C)C)c1
45 to 46	CCOC(=O)c1cnn(-c2ccccc2[N+](=O)[O-])c1C(=O)OCC
183 to 185	O=C(O)Cc1ccc(CN2CCN(C(c3ccccc3)c3ccccc3)CC2)cc1
260 to 262	COc1cc(N2CCN(C(=O)c3ccc(Nc4ccnc5cc(C(F)(F)F)ccc45)cc3)CC2)nc(OC)n1
250 to 251	Fc1ccc(F)c(CN2CCNc3ncc(-c4cnc(N5CCOCC5)nc4)cc32)c1Cl
80 to 81	C=Cc1cc2cc(OC)ccc2[nH]1
146 to 148	Cn1c(SCC(=O)C23CC4CC(CC(C4)C2)C3)nc2ccccc21
125 to 128	CCOC(=O)N(C)CCCC1c2cccc3c2N(CC3)c2ccccc2N1C(C)=O (configuration not stated)
231 to 232	Cc1cc(F)ccc1-c1nc(NC2CCOCC2)nc2c1ccc(=O)n2-c1c(F)cccc1F
193 to 195	O=C(NC1CCCn2c1nc(-c1ccncc1)cc2=O)Oc1ccccc1 (racemic)
104 to 105	c1ccc(-c2ncn(C3CCCCO3)c2-c2ccccc2)cc1 (configuration not stated)
245 to 246	O=C(c1ccccc1Cl)c1c(O)nn(-c2c(Cl)cc(Cl)cc2Cl)c1N1C(=O)c2ccccc2C1=O
174 to 176	COC(=O)Nc1ccc(-c2ncon2)cc1
221	Nc1cc(Sc2ccc3c(C(=O)Nc4ccc(F)c(C(F)(F)F)c4)cccc3c2)ncn1
156 to 157	COc1ccc(Br)c(COc2ccc3ccc(OC)cc3c2)c1
114 to 116	CCCc1c(C(C)C)cc(C(C)C)c(C(C)O)c1-c1ccc(F)cc1 (single isomer, unassigned; (+))
78 to 80	COC1=CCC2=C(CCC3C2CCC2(C)C3CCC2N(C)CCCN(C)C)C1 (configuration not stated)

melting point [°C]	Structure (SMILES)
145 to 146	COc1ccc(-c2cc(=O)n(Cc3ccccc3)nc2-c2ccc(OC)cc2)cc1
168 to 169	Cc1c(Cc2cccc(C(F)(F)F)c2)sc2c(-c3cc(F)cc(C(=O)O)c3)cccc12
> 300	O=C(O)c1cccc2c(=O)c3ccccc3[nH]c12
80 to 82	Cc1cc([N+](=O)[O-])ccc1Oc1cncc(Cl)c1
48	CN(Cc1cccc(-c2ccc(CC3SC(=O)NC3=O)cc2)c1)C(=O)CCCCC(=O)c1ccccc1 (configuration not stated)
104 to 105	O=C(c1ccccc1)N1CCN(c2cncc(Cl)n2)CC1
40 to 43	OCC1Cc2c(F)ccc(Br)c2O1 (configuration not stated)
285 to 287	CCOC(=O)c1c[nH]c2c(C#N)c(CCCNC)nn2c1=O
124 to 126	CCOC(=O)C1Oc2cc(C(=O)c3ccnn3C)c(Cl)c(Cl)c2O1 (configuration not stated)
178 to 179	Cc1c(NC(=O)c2ccc(C3CCCCC3)cc2)ccc2cc(CN3CCCC3)cnc12
118	CN1C(=O)N(Cc2ccccc2)CC1(CCO)c1ccc(Cl)c(Cl)c1 (configuration not stated)
157 to 159	COc1ccc2[nH]c(C(=O)C3(c4ccc(Cl)cc4)CCCC3)cc2c1
244 to 246	CC1(C)CCCC(C)(C)N1Cc1ccc2cc(NC(=O)c3ccc(-c4ccc(Cl)cc4)cc3)ccc2c1
167 to 169	CC(C)[C@H](NC(=O)c1ccccc1)C(=O)NCC(=O)N[C@@H](CCCNC(=N)N)C(=O)Nc1ccc2ncccc2c1
192 to 194	Clc1cc2c3c(c1)C(c1ccccc1)Nc1ccccc1N3CC2 (configuration not stated)
220 to 222	CC1Cc2cc(C(O)C(C)N3CCC(n4c(=O)[nH]c5ccccc54)CC3)ccc2S1 (configuration not stated)
101 to 103	CC(C)(C)ONC(=O)n1cc(C(=O)C2CSC(c3cccnc3)N2)c2ccccc21 (configuration not stated)
171 to 172	O=C1C(=CO)Cc2c1cnn2Cc1ccccc1
138 to 140	CC(C)(C)[C@@H](NS(=O)(=O)c1ccc(Oc2ccc(Cl)cc2)cc1)C(=O)O
195 to 198	CC12CCC(O)CC1=CCC1C2CCC2(C)C(n3ncnn3)=CCC12 (configuration not stated)
80	CC(c1ccccc1)C(CS)C(=O)NC(Cc1ccc(O)cc1)C(=O)O (configuration not stated)
74 to 88	Cc1cc2c(s1)Nc1ccccc1N=C2N1CCN(C)[C@@H](COc2ccccc2)C1
123 to 124	COC1CCC2(C)C(=CCC3C2CCC2(C)C(C(C)=O)CCC32)C1 (configuration not stated)
56 to 57	CCCCCCCCCCCCCCOCC(O)CO (configuration not stated)

Structure (SMILES)	melting point [°C]
NC1Cc2cccc3c2C(C1)CN3C(=O)c1ccccc1 (configuration not stated)	118 to 120
CNC(=O)Nc1ccc2[nH]cc(CCN)c2c1	188 to 190
O=C(O)CC1CCC2(CC1)OOC1(O2)C2CC3CC(C2)CC1C3 (configuration not stated)	146 to 148
CC1(OC(=O)C=CC2C(C(=O)OC(C#N)c3cccc(Oc4ccccc4)c3)C2(C)C)CCC1 (configuration not stated)	78
CCC(C#N)(C#N)Cc1ccc(Cl)cc1	70.9
NC1Cc2ccc(-c3ccc(=O)[nH]n3)cc2C1 (configuration not stated)	228 to 229
